This note sets out measurements from US7138421B2, “Anti-androgenic pyrrolidines with tumor-inhibiting action” (Schring Aktiengesellschaft, priority 2003, dated 2006).

SMILES strings stand for the structures. Where two headings read alike, the source gives them in different places. Bounds are passed on as bounds.

Data set [1] in a line: Pharmacokinetics in rats after intravenous and peroral administration. The following applies: rat, serum; for Vd / clearance: intravenous; for Vd: read-out: Distribution Volume Vdss; for clearance: read-out: Systemic Serum Clearance CL; for Tmax: read-out: Absorption Tmax. The data set is classed as in vivo. From the text:
Model 4: Pharmacokinetics in Rats After Intravenous and Peroral Administration
The pharmacokinetic properties of the compounds according to the invention were studied in Examples 1: 4-[4,4-dimethyl-5-oxo-3-[8-(pyrrolidin-1-yl)octyl]-2-thioxoimidazolidin-1-yl]-2-(trifluoromethyl)benzonitrile and 11: 4-[3-[8-[(2S)-2-(hydroxymethyl)pyrrolidin-1-yl]octyl]-4,4-dimethyl-5-oxo-2-thioxoimidazolidin-1-yl]-2-(trifluoromethyl)benzonitrile.

Another data set relates to LNCaP cells. The data set is described as follows: Inhibition of the proliferation of LNCaP cells (crystal violet assay). The format is cell-based, human. The following applies: for IC50: 7 to 8 days. The method, then:
For the proliferation assay, 6000 LNCaP cells/well (Horoszewicz et al. Cancer Res. 1983, 43, 1809–1817) in a microtiter plate (96-well) in 50 μl of RPMI1640 medium are grown with 5% CCS and cultivated as in Model 1. After 24 hours, the cells receive 50 μl of 2×-concentrated test substance, diluted in culture medium. The solvent concentration is 0.5% DMSO. After 4 days, the cells receive another 100 μl of 1×-concentrated test substance, diluted in culture medium. After 7 to 8 days, the proliferation rate of the cells is determined by means of crystal violet assay (Gillies et al. Anal. Biochem. 1986, 159, 109–113). To determine the antagonism, the substance treatment is performed in the presence of […] of R1881 (1:1000 dilution of ethanolic solution). Control cells receive only 0.5% DMSO. For the agonism, the cells are treated only with test substance (without R1881).

In the next data set the target is T1, androgen receptor (Homo sapiens, UniProt P10275, T878A).
T1 construct: Destabilization of AR in LNCaP Cells by Test Substances; endogenous in cells; host or cells: LNCaP (human prostate cell line)
T1 sequence (P10275 1-920 T878A): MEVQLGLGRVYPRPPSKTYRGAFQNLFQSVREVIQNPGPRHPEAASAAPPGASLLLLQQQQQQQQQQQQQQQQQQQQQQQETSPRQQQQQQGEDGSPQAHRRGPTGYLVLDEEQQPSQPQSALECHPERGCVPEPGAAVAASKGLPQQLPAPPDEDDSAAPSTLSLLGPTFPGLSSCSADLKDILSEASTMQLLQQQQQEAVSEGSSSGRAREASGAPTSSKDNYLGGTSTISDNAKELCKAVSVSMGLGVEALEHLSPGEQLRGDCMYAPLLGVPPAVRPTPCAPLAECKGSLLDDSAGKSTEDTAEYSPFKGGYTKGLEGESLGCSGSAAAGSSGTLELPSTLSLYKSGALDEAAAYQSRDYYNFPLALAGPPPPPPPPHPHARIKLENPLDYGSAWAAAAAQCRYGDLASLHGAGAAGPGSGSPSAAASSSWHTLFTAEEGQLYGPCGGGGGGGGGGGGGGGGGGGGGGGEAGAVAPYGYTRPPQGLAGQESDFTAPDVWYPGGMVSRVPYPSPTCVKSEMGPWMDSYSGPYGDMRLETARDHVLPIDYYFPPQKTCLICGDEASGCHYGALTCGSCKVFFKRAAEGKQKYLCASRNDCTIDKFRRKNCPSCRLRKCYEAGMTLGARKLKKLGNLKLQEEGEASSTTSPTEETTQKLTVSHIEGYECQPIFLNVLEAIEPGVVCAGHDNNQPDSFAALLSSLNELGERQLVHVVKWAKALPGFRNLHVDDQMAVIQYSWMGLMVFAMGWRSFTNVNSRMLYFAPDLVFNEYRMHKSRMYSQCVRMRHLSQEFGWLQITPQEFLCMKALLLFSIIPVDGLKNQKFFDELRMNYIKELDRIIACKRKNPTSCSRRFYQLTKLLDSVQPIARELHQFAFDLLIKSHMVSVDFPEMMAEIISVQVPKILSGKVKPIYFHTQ
The format is cell-based. Conditions: LNCaP cells, 48 h, 10 μM, % of DMSO control.

A further data set concerns seminal vesicles. The data set is described as follows: Anti-androgenic action on testosterone-stimulated growth of the seminal vesicles of castrated mice. The data set is classed as in vivo, mouse. The following applies: 7 days, castrated mice with testosterone propionate. The method, then:
The function and the size of accessory reproductive glands (prostate and seminal vesicles) depend on androgens. In castrated animals, a growth of these organs is induced by the administration of androgen. Simultaneous treatment with anti-androgens inhibits this growth in a dose-dependent manner. For the examination of test substances, the mice were castrated. On the same day, treatment with testosterone propionate (0.03 mg/mouse) and the test substances (1× daily 10 or 30 mg/kg p.o. in benzyl benzoate-castor oil or ethanol/peanut oil (10:90)) was formulated. The treatment was carried out over 7 days and at the end of the test, the weights of the seminal vesicles and prostate were determined. The inhibition of the seminal vesicle growth, in percent, was calculated in reference to the control groups (with and without testosterone). As a reference substance, cyproterone acetate (30 mg/kg s.c. and p.o.) was used.

Where [2] appears, read: iv, read-out: Half-Life i.v. T1/2 (converted).
Where [3] appears, read: po, read-out: Half-Life p.o. T1/2 (converted).
The mark [4] stands for this setting: Homo sapiens, LNCaP, read-out: % Inhibition at 1 μM, 1 μM test substance, compared to cell growth in the presence of 0.1 nmol of R1881.
Setting [5] is: Homo sapiens, LNCaP, read-out: IC50 inhibition of the proliferation of LNCaP cells, in the presence of 0.1 nmol of R1881.

For the molecule `CC1(C)C(=O)N(c2ccc(C#N)c(C(F)(F)F)c2)C(=S)N1CCCCCCCCN1CCC[C@H]1CO` [Example 11, 4-[3-[8-[(2S)-2-(Hydroxymethyl)pyrrolidin-1-yl]octyl]-4,4-dimethyl-5-oxo-2-thioxoimidazolidin-1-yl]-2-(trifluoromethyl)benzonitrile], in data set [1], the Vd turned out to be 11 L/kg and the clearance was 20 mL/min/kg. For the same molecule, the half-life in data set [1] (setting [2]) is 5.7 h. Also, in data set [1] (po), the bioavailability (as a rule, dose-corrected exposure relative to a reference, in per cent) turned out to be 65% and the Tmax (usually the time at which the peak concentration occurs) is 7 h. The half-life in data set [1] (setting [3]) was 8 h. Besides, the inhibition (commonly the relative decrease from the control value, in per cent) at 1 µM in the data set on LNCaP cells (setting [4]) stood at 102%. Moreover, the IC50 in the data set on LNCaP cells (setting [5]) came out at 13 nM. For the same molecule, the “AR Content at 10 μM” value on androgen receptor is given as 50%. Besides, the “% Inhibition of MSB Growth” value in the data set with seminal vesicles (30 mg/kg p.o., 1× daily) came to 95%.
As for `CC(O)(CS(=O)(=O)c1ccc(F)cc1)C(=O)Nc1ccc(C#N)c(C(F)(F)F)c1` (centres unmarked) [Bicalutamide, N-[4-Cyano-3-(trifluoromethyl)phenyl]-3-[(4-fluorophenyl)sulfonyl]-2-hydroxy-2-methylpropanamide, reference compound], the inhibition at 1 µM in the data set with LNCaP cells (Homo sapiens, LNCaP, 1 μM test substance, compared to cell growth in the presence of 0.1 nmol of R1881, read-out: % Inhibition at 1 μM) is 85%. The “% Inhibition of MSB Growth” value in the data set on seminal vesicles (30 mg/kg p.o., 1× daily) was 82%; with seminal vesicles (30 mg/kg s.c.) it was 86%.
Turning to `CC(=O)O[C@]1(C(C)=O)CC[C@H]2[C@@H]3C=C(Cl)C4=CC(=O)[C@@H]5C[C@@H]5[C@]4(C)[C@H]3CC[C@@]21C` [CPA, 17-(acetyloxy)-6-chloro-1β,2β-dihydro-3′H -cyclopropa[1,2]pregna-1,4,6-triene-3,20-dione, reference compound], in the data set with seminal vesicles (30 mg/kg s.c.), the “% Inhibition of MSB Growth” value was found to be 85%.
Regarding `CC1(C)C(=O)N(c2ccc(C#N)c(C(F)(F)F)c2)C(=S)N1CCCCCCCCN1CCCC1.Cl` [Example 2, 4-[4,4-Dimethyl-5-oxo-3-[8-(pyrrolidin-1-yl)octyl]-2-thioxoimidazolidin-1-yl]-2-(trifluoromethyl)benzonitrile hydrochloride], the % Inhibition – broadly, the share of the control response that was lost under treatment – at 1 μM in the data set with LNCaP cells (1 μM test substance, compared to cell growth in the presence of 0.1 nmol of R1881) was 100%. Besides, the IC50 with LNCaP cells (read-out: IC50 inhibition of the proliferation of LNCaP cells, in the presence of 0.1 nmol of R1881, hydrochloride) worked out at 41 nM. Also, the “AR Content at 10 μM” value on androgen receptor stood at 50%. For the same molecule, the “% Inhibition of MSB Growth” value in the data set on seminal vesicles (30 mg/kg p.o., 1× daily) is 95%.
In the case of `CC1(C)C(=O)N(c2ccc(C#N)c(C(F)(F)F)c2)C(=S)N1CCCCCCCCN1CCCC1` [Example 1, 4-[4,4-Dimethyl-5-oxo-3-[8-(pyrrolidin-1-yl)octyl]-2-thioxoimidazolidin-1-yl]-2-(trifluoromethyl)benzonitrile], in data set [1], the Vd stood at 37 L/kg and the clearance was found to be 76 mL/min/kg. Moreover, the half-life in data set [1] (setting [2]) was 5.6 h. Further, in data set [1] (po), the bioavailability was 72% and the Tmax amounted to 5 h. In addition, the half-life in data set [1] (setting [3]) is 6.1 h. Besides, in the data set on LNCaP cells (setting [4]), the inhibition at 1 µM was determined as 98%. In the data set with LNCaP cells (setting [5]), the IC50 was found to be 45 nM. Besides, on androgen receptor, the “AR Content at 10 μM” value stood at 63%. In addition, the “% Inhibition of MSB Growth” value in the data set with seminal vesicles (10 mg/kg p.o., 1× daily) amounted to 82%. Besides, in the data set on seminal vesicles (30 mg/kg p.o., 1× daily), the “% Inhibition of MSB Growth” value worked out at 99%.
Turning to `CC1(C)C(=O)N(c2ccc(C#N)c(C(F)(F)F)c2)C(=S)N1CCCCCCCCN1CCC[C@@H]1CO` [Example 10, 4-[3-[8-[(2R)-2-(Hydroxymethyl)pyrrolidin-1-yl]octyl]-4,4-dimethyl-5-oxo-2-thioxoimidazolidin-1-yl]-2-(trifluoromethyl)benzonitrile], the inhibition at 1 µM in the data set on LNCaP cells (setting [4]) was 101%. For the same molecule, the IC50 in the data set with LNCaP cells (setting [5]) is less than 10 nM. For the same molecule, the “% Inhibition of MSB Growth” value in the data set on seminal vesicles (10 mg/kg p.o., 1× daily) is 87%.
